Measured values taken from the NIST ThermoML archive (doi:10.1021/je9006597).

Test: xn = mol fraction of the nth substance listed
Settings: 101 kPa, Liquid; for speed of sound: Pulse-echo method

C1CCCCC1 [cyclohexane] + COC(=O)c1ccccc1
x2 = 0
Settings	mass density [kg/m3]	speed of sound [m/s]	viscosity [mPa·s]
303.15 K	768.3	1228	0.823
308.15 K	764.4	1208	0.772
313.15 K	760.5	1188	0.685

CCCCCCCC [octane] + COC(=O)c1ccccc1
x2 = 0
Settings	mass density [kg/m3]	speed of sound [m/s]	viscosity [mPa·s]
303.15 K	693.9	1148	0.491
308.15 K	690.4	1132	0.45
313.15 K	687	1112	0.415

COC(=O)c1ccccc1 [methyl benzoate] + CCCCCC
Settings	mass density, 303.15 K [kg/m3]	mass density, 308.15 K [kg/m3]	mass density, 313.15 K [kg/m3]	speed of sound, 303.15 K [m/s]	speed of sound, 308.15 K [m/s]	speed of sound, 313.15 K [m/s]	viscosity, 303.15 K [mPa·s]	viscosity, 308.15 K [mPa·s]	viscosity, 313.15 K [mPa·s]
x1 = 0.1027	692.7	689	685.1	1072	1052	1036	0.324	0.301	0.283
x1 = 0.2076	738	734.2	730.3	1100	1080	1064	0.384	0.358	0.335
x1 = 0.3084	781.4	777.6	773.7	1128	1108	1096	0.441	0.409	0.383
x1 = 0.4087	825.2	821.3	817.3	1160	1140	1128	0.527	0.487	0.454
x1 = 0.5114	869.6	865.6	861.7	1196	1180	1164	0.624	0.579	0.542
x1 = 0.6115	913.1	909.2	905.3	1232	1220	1200	0.751	0.688	0.635
x1 = 0.7092	955.5	951.5	947.3	1272	1256	1240	0.915	0.844	0.78
x1 = 0.8069	997.7	993.7	989.7	1312	1292	1280	1.104	1.016	0.935
x1 = 0.9024	1036.9	1033	1029.1	1344	1328	1316	1.37	1.238	1.135
x1 = 1	1078.3	1074.4	1070.3	1380	1364	1348	1.667	1.514	1.376

COC(=O)c1ccccc1 [methyl benzoate] + C1CCCCC1
Settings	mass density, 303.15 K [kg/m3]	mass density, 308.15 K [kg/m3]	mass density, 313.15 K [kg/m3]	speed of sound, 303.15 K [m/s]	speed of sound, 308.15 K [m/s]	speed of sound, 313.15 K [m/s]	viscosity, 303.15 K [mPa·s]	viscosity, 308.15 K [mPa·s]	viscosity, 313.15 K [mPa·s]
x1 = 0.088	796.9	793	789.1	1240	1220	1200	0.802	0.74	0.675
x1 = 0.1777	825.9	822.1	818.2	1252	1232	1212	0.82	0.757	0.704
x1 = 0.2692	855.8	851.9	848.1	1264	1244	1224	0.854	0.792	0.736
x1 = 0.3668	887.5	883.6	879.7	1276	1260	1240	0.905	0.84	0.781
x1 = 0.4667	918.8	915	911.1	1292	1276	1256	0.977	0.904	0.835
x1 = 0.5639	950	946.1	942.2	1308	1292	1276	1.076	0.999	0.932
x1 = 0.6675	981.7	978	974.1	1324	1308	1292	1.181	1.09	1.004
x1 = 0.7727	1013.3	1009.5	1005.5	1340	1324	1312	1.308	1.197	1.097
x1 = 0.8859	1046.1	1042.2	1038.3	1360	1344	1332	1.478	1.363	1.234
x1 = 1	1078.3	1074.4	1070.3	1380	1364	1348	1.667	1.514	1.376

CCCCCC [hexane] + COC(=O)c1ccccc1
x2 = 0
Settings	mass density [kg/m3]	speed of sound [m/s]	viscosity [mPa·s]
303.15 K	649.8	1048	0.283
308.15 K	645.9	1028	0.269
313.15 K	642.2	1008	0.252

COC(=O)c1ccccc1 [methyl benzoate] + CCCCCCC
Settings	mass density, 303.15 K [kg/m3]	mass density, 308.15 K [kg/m3]	mass density, 313.15 K [kg/m3]	speed of sound, 303.15 K [m/s]	speed of sound, 308.15 K [m/s]	speed of sound, 313.15 K [m/s]	viscosity, 303.15 K [mPa·s]	viscosity, 308.15 K [mPa·s]	viscosity, 313.15 K [mPa·s]
x1 = 0.1154	715.5	711.3	708.1	1128	1108	1088	0.413	0.38	0.35
x1 = 0.2273	756.4	752.4	749.1	1148	1128	1108	0.467	0.43	0.401
x1 = 0.335	797.1	793.1	789.8	1168	1148	1128	0.533	0.494	0.458
x1 = 0.439	837.7	833.9	830.5	1192	1172	1152	0.627	0.575	0.529
x1 = 0.5404	878.6	874.8	871.3	1220	1196	1180	0.723	0.666	0.615
x1 = 0.6365	918.3	914.7	911.1	1248	1228	1212	0.84	0.781	0.728
x1 = 0.7324	959	955.3	951.7	1276	1260	1248	0.99	0.904	0.849
x1 = 0.8252	999.4	995.7	992.1	1308	1296	1284	1.172	1.068	0.982
x1 = 0.9133	1038.7	1034.8	1030.9	1348	1336	1324	1.404	1.284	1.15
x1 = 1	1078.3	1074.4	1070.3	1380	1364	1348	1.667	1.514	1.376

CCCCCCC [heptane] + COC(=O)c1ccccc1
x2 = 0
Settings	mass density [kg/m3]	speed of sound [m/s]	viscosity [mPa·s]
303.15 K	674.5	1116	0.375
308.15 K	670.3	1092	0.35
313.15 K	667.2	1072	0.325
